The values below come from patent US7291621B2, “Substituted biaryl amides C5a receptor modulators” (Neurogen Corporation, priority 2002, dated 2007).

Molecules are shown by their SMILES.

This assay deals with T1, C5a receptor (Homo sapiens, UniProt P21730).
T1 construct: endogenous in cells; host or cells: U937 cells differentiated with 1 mM dibutyryl cAMP
T1 sequence (P21730 1-350): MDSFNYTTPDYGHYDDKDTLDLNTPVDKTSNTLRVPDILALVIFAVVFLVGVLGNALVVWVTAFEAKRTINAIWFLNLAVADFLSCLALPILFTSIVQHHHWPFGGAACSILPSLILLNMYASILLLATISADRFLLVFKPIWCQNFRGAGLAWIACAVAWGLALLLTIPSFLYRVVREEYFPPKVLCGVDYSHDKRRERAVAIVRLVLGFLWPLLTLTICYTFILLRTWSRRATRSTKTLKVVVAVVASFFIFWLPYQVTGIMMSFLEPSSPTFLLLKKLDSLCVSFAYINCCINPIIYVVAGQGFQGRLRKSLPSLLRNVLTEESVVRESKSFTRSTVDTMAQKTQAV
Briefly: standard assay of C5a receptor mediated calcium mobilization. It is filed as cell-based. Particulars: Table I; asterisk = tested in C5a receptor mediated calcium mobilization assay; read-out: Ca2+ Mob. The method, then: U937 cells are grown in differentiation media (1 mM dibutyrl cAMP in RPMI 1640 medium containing 10% fetal bovine serum) for 48 hrs at 37° C. then reseeded onto 96-well plates suitable for use in a FLIPR™ Plate Reader (Molecular Devices Corp., Sunnyvale Calif.). Cells are grown an additional 24 hours (to 70-90% confluence) before the assay. The cells are then washed once with Krebs Ringer solution. FLUO-3 calcium sensitive dye (Molecular Probes, Inc. Eugene, Oreg.) is added to 10 μg/mL and incubated with the cells at room temperature for 1 to 2 hours. The 96 well plates are then washed to remove excess dye. Fluorescence responses, measured by excitation at 480 nm and emission at 530 nm, are monitored upon the addition of human C5a to the cells to a final concentration of 0.01-30.0 nM, using the FLIPR™ device (Molecular Devices).
The calcium mobilization assay described above may be readily adapted for identifying test compounds that have agonist or antagonist activity at the human C5a receptor.
For example, in order to identify antagonist compounds, differentiated U937 cells are washed and incubated with Fluo-3 dye as described above. One hour prior to measuring the fluorescence signal, a subset of the cells is incubated with 1 μM of at least one compound to be tested. The fluorescence response upon the subsequent addition of 0.3 nM (final concentration) human recombinant C5a is monitored using the FLIPR™ plate reader. Antagonist compounds elicit at least a 2-fold decrease in the fluorescence response relative to that measured in the presence of human C5a alone. Preferred antagonist compounds elicit at least a 5-fold, preferably at least a 10-fold, and more preferably at least a 20-fold decrease in the fluorescence response relative to that measured in the presence of human C5a alone.
(In general: Calcium flux is commonly read through the fluorescence of an indicator in the cells.)
Take `COc1ccc(-c2ccccc2)c(C(=O)N(Cc2ccccc2F)C2Cc3ccccc3C2)c1` [compound 108, N-(indan-2-yl)-N-(2-fluorobenzyl)-4-methoxy-1,1′-biphenyl-2-carboxamide]: the Ki was below 1000 nM. Take `COc1ccc(-c2ccccc2)c(C(=O)N(Cc2cccc(F)c2)C2Cc3ccccc3C2)c1` [compound 109, N-(indan-2-yl)-N-(3-fluorobenzyl)-4-methoxy-1,1′-biphenyl-2-carboxamide]: the Ki was below 1000 nM.

Take `COc1ccc(-c2ccccc2)c(C(=O)N(Cc2ccc(F)cc2)C2Cc3ccccc3C2)c1` [compound 110, N-(indan-2-yl)-N-(4-fluorobenzyl)-4-methoxy-1,1′-biphenyl-2-carboxamide]: the Ki was below 1000 nM. Regarding `COc1ccc(-c2ccccc2)c(C(=O)N(Cc2ccc(F)c(F)c2)C2Cc3ccccc3C2)c1` [compound 111, N-(3,4-difluorobenzyl)-N-(indan-2-yl)-4-methoxy-1,1′-biphenyl-2-carboxamide], the Ki is below 1000 nM. Next, `O=C(c1c(F)cccc1-c1ccccc1)N(Cc1ccccc1)C1Cc2ccccc2C1` [compound 112, N-benzyl-N-(indan-2-yl)-3-fluoro-1,1′-biphenyl-2-carboxamide]: below 1000 nM; `Cc1cccc(-c2ccccc2)c1C(=O)N(Cc1ccccc1)C1Cc2ccccc2C1` [compound 113, N-benzyl-N-(indan-2-yl)-3-methyl-1,1′-biphenyl-2-carboxamide]: below 1000 nM; `Cc1ccc(-c2cccc(F)c2C(=O)N(Cc2ccccc2)C2Cc3ccccc3C2)s1` [compound 114, N-benzyl-N-(indan-2-yl)-2-fluoro-6-(5-methylthien-2-yl)benzamide]: below 1000 nM. Turning to `Cc1ccc(-c2cccc(C)c2C(=O)N(Cc2ccccc2)C2Cc3ccccc3C2)s1` [compound 115, N-benzyl-N-(indan-2-yl)-2-methyl-6-(5-methylthien-2-yl)benzamide], the Ki is below 1000 nM. Regarding `Cc1ccc(-c2ccccc2)c(C(=O)N(Cc2ccccc2)C2Cc3ccccc3C2)c1` [compound 116, N-benzyl-N-(indan-2-yl)-4-methyl-1,1′-biphenyl-2-carboxamide], the Ki was below 1000 nM. As for `O=C(c1cc(Cl)ccc1-c1ccccc1)N(Cc1ccccc1)C1Cc2ccccc2C1` [compound 117, N-benzyl-4-chloro-N-(indan-2-yl)-1,1′-biphenyl-2-carboxamide], the Ki was below 1000 nM. The same measure for `Cc1ccc(-c2ccsc2)c(C(=O)N(Cc2ccccc2)C2Cc3ccccc3C2)c1` [compound 118, N-benzyl-N-(indan-2-yl)-5-methyl-2-thien-3-ylbenzamide]: below 1000 nM; for `O=C(c1cc(Cl)ccc1-c1ccsc1)N(Cc1ccccc1)C1Cc2ccccc2C1` [compound 119, N-benzyl-5-chloro-N-(indan-2-yl)-2-thien-3-ylbenzamide]: below 1000 nM.

With `Cc1ccccc1CN(C(=O)c1c(C)cccc1-c1ccccc1)C1Cc2ccccc2C1` [compound 120, N-(indan-2-yl)-3-methyl-N-(2-methylbenzyl)-1,1′-biphenyl-2-carboxamide], the Ki was below 1000 nM. The same measure for `Cc1cccc(CN(C(=O)c2c(C)cccc2-c2ccccc2)C2Cc3ccccc3C2)c1` [compound 121, N-(indan-2-yl)-3-methyl-N-(3-methylbenzyl)-1,1′-biphenyl-2-carboxamide]: below 1000 nM. On to `Cc1ccc(CN(C(=O)c2c(C)cccc2-c2ccccc2)C2Cc3ccccc3C2)cc1` [compound 122, N-(indan-2-yl)-3-methyl-N-(4-methylbenzyl)-1,1′-biphenyl-2-carboxamide], for which the Ki was below 1000 nM.

In the case of `Cc1cccc(-c2ccccc2)c1C(=O)N(Cc1ccccc1F)C1Cc2ccccc2C1` [compound 123, N-(indan-2-yl)-N-(2-fluorobenzyl)-3-methyl-1,1′-biphenyl-2-carboxamide], the Ki was below 1000 nM. `Cc1cccc(-c2ccccc2)c1C(=O)N(Cc1cccc(F)c1)C1Cc2ccccc2C1` [compound 124, N-(indan-2-yl)-N-(3-fluorobenzyl)-3-methyl-1,1′-biphenyl-2-carboxamide]: the Ki is below 1000 nM. `Cc1cccc(-c2ccccc2)c1C(=O)N(Cc1ccc(F)cc1)C1Cc2ccccc2C1` [compound 125, N-(indan-2-yl)-N-(4-fluorobenzyl)-3-methyl-1,1′-biphenyl-2-carboxamide]: the Ki is below 1000 nM. For `Cc1cccc(-c2ccccc2)c1C(=O)N(Cc1ccc(F)c(F)c1)C1Cc2ccccc2C1` [compound 126, N-(3,4-difluorobenzyl)-N-(indan-2-yl)-3-methyl-1,1′-biphenyl-2-carboxamide], the Ki is below 1000 nM. In the case of `COc1cccc(CN(C(=O)c2c(C)cccc2-c2ccccc2)C2Cc3ccccc3C2)c1` [compound 127, N-(indan-2-yl)-N-(3-methoxybenzyl)-3-methyl-1,1′-biphenyl-2-carboxamide], the Ki is below 1000 nM. In the case of `COc1ccc(CN(C(=O)c2c(C)cccc2-c2ccccc2)C2Cc3ccccc3C2)cc1` [compound 128, N-(indan-2-yl)-N-(4-methoxybenzyl)-3-methyl-1,1′-biphenyl-2-carboxamide], the Ki is below 1000 nM. On to `Cc1cccc(-c2ccccc2)c1C(=O)N(Cc1ccc2c(c1)OCO2)C1Cc2ccccc2C1` [compound 129, N-(1,3-benzodioxol-5-ylmethyl)-N-(indan-2-yl)-3-methyl-1,1′-biphenyl-2-carboxamide], for which the Ki is below 1000 nM. Turning to `Cc1cccc(-c2ccccc2)c1C(=O)N(CCc1ccccc1)C1Cc2ccccc2C1` [compound 130, N-(indan-2-yl)-3-methyl-N-(2-phenylethyl)-1,1′-biphenyl-2-carboxamide], the Ki was below 1000 nM. Next, `Cc1ccccc1CN(C(=O)c1cc(Cl)ccc1-c1ccccc1)C1Cc2ccccc2C1` [compound 131, 4-chloro-N-(indan-2-yl)-N-(2-methylbenzyl)-1,1′-biphenyl-2-carboxamide]: below 1000 nM; `Cc1cccc(CN(C(=O)c2cc(Cl)ccc2-c2ccccc2)C2Cc3ccccc3C2)c1` [compound 132, 4-chloro-N-(indan-2-yl)-N-(3-methylbenzyl)-1,1′-biphenyl-2-carboxamide]: below 1000 nM; `O=C(c1cc(Cl)ccc1-c1ccccc1)N(Cc1ccccc1F)C1Cc2ccccc2C1` [compound 134, 4-chloro-N-(indan-2-yl)-N-(2-fluorobenzyl)-1,1′-biphenyl-2-carboxamide]: below 1000 nM.

`O=C(c1cc(Cl)ccc1-c1ccccc1)N(Cc1cccc(F)c1)C1Cc2ccccc2C1` [compound 135, 4-chloro-N-(indan-2-yl)-N-(3-fluorobenzyl)-1,1′-biphenyl-2-carboxamide]: the Ki was below 1000 nM.

For the compound `O=C(c1cc(Cl)ccc1-c1ccccc1)N(Cc1ccc(F)cc1)C1Cc2ccccc2C1` [compound 136, 4-chloro-N-(indan-2-yl)-N-(4-fluorobenzyl)-1,1′-biphenyl-2-carboxamide], the Ki was below 1000 nM. Take `O=C(c1cc(Cl)ccc1-c1ccccc1)N(Cc1ccc(F)c(F)c1)C1Cc2ccccc2C1` [compound 137, 4-chloro-N-(3,4-difluorobenzyl)-N-(indan-2-yl)-1,1′-biphenyl-2-carboxamide]: the Ki is below 1000 nM. Take `COc1ccc(CN(C(=O)c2cc(Cl)ccc2-c2ccccc2)C2Cc3ccccc3C2)cc1` [compound 138, 4-chloro-N-(indan-2-yl)-N-(4-methoxybenzyl)-1,1′-biphenyl-2-carboxamide]: the Ki was below 1000 nM. Regarding `O=C(c1cc(Cl)ccc1-c1ccccc1)N(Cc1ccc2c(c1)OCO2)C1Cc2ccccc2C1` [compound 139, N-(1,3-benzodioxol-5-ylmethyl)-4-chloro-N-(indan-2-yl)-1,1′-biphenyl-2-carboxamide], the Ki is below 1000 nM.

As to `COc1cccc(CN(C(=O)c2cc(Cl)ccc2-c2ccccc2)C2Cc3ccccc3C2)c1` [compound 140, 4-chloro-N-(indan-2-yl)-N-(3-methoxybenzyl)-1,1′-biphenyl-2-carboxamide], the Ki is below 1000 nM. With `O=C(c1cc(Cl)ccc1-c1ccccc1)N(CCc1ccccc1)C1Cc2ccccc2C1` [compound 141, 4-chloro-N-(indan-2-yl)-N-(2-phenylethyl)-1,1′-biphenyl-2-carboxamide], the Ki is below 1000 nM. As for `Cc1cc(CN(Cc2ccccc2)C(=O)c2cc(Cl)ccc2-c2ccccc2)cc(C)c1O` [compound 142, N-benzyl-4-chloro-N-(4-hydroxy-3,5-dimethylbenzyl)-1,1′-biphenyl-2-carboxamide], the Ki is below 1000 nM.
